Experimental data reported in patent US6492365B1, “Microsomal triglyceride transfer protein” (Bristol-Myers Squibb Company, priority 1992, dated 2002).
pIC50: −log10 of the molar value. Structures can show the parent of a compound that is named as a salt.

Tested on: apoB secretion from HepG2 cells
Assay: ApoB secretion from HepG2 cells (ELISA of culture media)
Format: cell-based, human
Procedure: (§1) HepG2 cells were treated with compound A at the indicated doses for 16 hours. The concentration in the cell culture media of apoB, apoAI and HSA after the incubation period was measured with the appropriate ELISA assay and normalized to total cell protein. The data shown are expressed as a percentage of the control (DMSO only).
as §1, with “compound B” for “compound A”
The human hepatoblastoma cell line, HepG2, was obtained from the American Type Culture Collection (Rockville, Md.; ATCC accession no. 8065). […]
Experiments to measure the effects of compounds A and B on protein secretion were carried out in 48-well plates. […] Before commencement of drug treatment, culture medium was removed, the cells washed once with PBS and 1 mL of fresh medium was added quantitatively. […] The cells were homogenized by trituration with a 1 mL micropipettor, and protein was measured using the Coomassie reagent (Pierce Chemical Co, Rockford, Ill.) as described by the manufacturer. […]

| pIC50 (Homo sapiens, 16-hour incubation, 0.156 to 20 μM, read-out: IC50 for inhibition of apoB secretion) | SMILES | secretion of lipoproteins that contain apoB (result in words) |
| --- | --- | --- |
| 5.30 | O=C1c2ccccc2CN1C1CCN(CCC(c2ccccc2)c2ccccc2)CC1 [compound A, 2-[1-(3,3-diphenylpropyl)-4-piperdinyl]-2,3-dihydro-3-oxo-1H-isoindole hydrochloride] | – |
| – | COc1ccccc1N1CCN(CC2CC(=O)c3ccc(F)cc3C2)CC1 (centres unmarked) [compound B, 1-[3-(6-fluoro-1-tetralanyl)methyl]-4-O-methoxyphenyl piperazine] | inhibited |
